The subject of series [1] is MDA-MB-231 cells. The series is described as follows: Dose-dependency study with Apotracker Red. The series is classed as cell-based, human. The following applies: 1 to 100 µM, 48 h, Apotracker Red 150 nM. The protocol:
(§1) First, all drugs were tested in the 8 different cell lines to determine the percentages of Apotracker Red‐stained apoptotic cells compared to no treatment (Figure 3 c; Figure S8). […] All 5 drugs were tested at multiple concentrations (from 1 to 100 μM) and with incubation times up to 48 h to examine whether drugs could block cell proliferation at late stages (Figures S9–S13).
Edinburgh. Human peripheral blood neutrophils were isolated as previously described.[3] Briefly, whole blood was drawn into tubes containing anti -coagulant 3.6% sodium citrate (final concentration: 0.4% (w/v)) and centrifuged at 350 g for 20 min at r.t. with lowest acceleration and no brake. Platelet-rich plasma was rem oved, and leukocytes separated from erythrocytes by 0.6% dextran sedimentation in saline for 30 min at r.t. The upper layer was further fractionated using an isotonic discontinuous Percoll density gradient. Neutrophils were harvested from the 63% and 72.9% interface and cultured in Iscove’s Modified Dulbecco’s Medium (IMDM, Gibco) in 5% h um an A B se rum fo r 1 8 h at 37°C, 5% CO2 to in du ce spontaneous […]
(§2) Cell culture. MCF-7, A549, LnCap, MDA-MB-231, Jurkat T cells and PC3 cells were obtained from American Type Culture Collection (ATCC). HT29 cells were purchased from Merck (S i g m a Aldrich, UK). Mouse Mammary Tumour Virus –Polyoma Middle T antigen (MMTV -PyMT) cells were provided by the lab of Mikala Egeblad (CSHL, US). MMTV-PyMT, MCF-7, LnCap, MDA-MB-231 and Jurkat T cells were cultured in Roswell Park Memorial Institute (RPMI) 1640 Medium supplemented with 10% fetal bovine serum (FBS) , 100 U mL-1 penicillin and 0.1 mg mL-1 streptomycin. A549 and PC3 cells were cultured in Dublecco’s modified Eagle’s medium (DMEM) supplemented with 10% fetal bovine serum (FBS), 100 U mL-1 penicillin and 0.1 mg […]
(§3) Flow cytometry drug screen.

Another series deals with 8 cancer cell lines. Nature of the series: Classification of drugs by Apotracker Red (apoptosis) and CellTrace Violet (proliferation) staining. The following applies: 8 cell lines, 24 h treatment, single-dose screen. The series is classed as cell-based. The protocol: To corroborate the versatility of Apotracker Red, we built a screening platform including a total of 8 cancer cell lines of variable origin and pathogenesis: breast (MCF7, MDA‐MB231 and MMTV‐PyMT (mouse mammary tumour virus‐polyoma middle tumour‐antigen)[23]), lung (A549), prostate (PC3 and LnCap), blood cells (Jurkat) and colon (HT29). All cell lines were cultured under standard conditions and seeded with the fluorescent proliferation marker CellTrace^TM Violet (CV) in 96‐well plates (10–20×10^3 cells/well) for high‐throughput flow cytometry. After drug treatment (i.e., drug addition plus 24 h incubation), Apotracker Red was incubated for 10 min and fluorescence readings were directly acquired without any additional processing steps (Figure 3 a). […] Using this platform, we tested a collection of FDA‐approved drugs in all cancer cell lines and compared their ability to induce apoptosis using Apotracker Red as the reporter. Specifically, we included DNA alkylation agents (e.g., cyclophosphamide, cisplatin, 5‐fluorouracil, gemcitabine, temozolomide), proteasomal and mitotic inhibitors (e.g., bortezomib, docetaxel, paclitaxel) and antagonists of specific proteins (e.g., dexamethasone, tamoxifen; Figure 3 b).
as §1
Figure S8. Heatmap of relative inhibition of cell proliferation (as indicated by staining of CellTraceTM Violet) after treatment of cancer cell lines with different drugs. Data presented as an average of 3 independent experiments. Cells were stained on day 0 with CellTraceTM Violet (1 µM) and mean fluorescence intensities were determined on the 5L LSR after 24 h of treatment with the different drugs.
(1 picture or pasted object on this page, not shown here) […]
as §2, §3

Series [2] concerns MDA-MB-231 cells. The series is described as follows: Cell viability (TACS MTT cell proliferation assay). The class given is cell-based, human. The settings on record: MDA-MB-231, different concentrations, 3 h, n=5. As for the experimental part: (§4) Figure S15. Cell viability experiments (TACS® MTT cell proliferation assay) after incubation of Apotracker Red in breast cancer cell lines (a: MCF7 cells, b: MDA-MB-231 cells) at different concentrations for 3 h. Data presented as means ± SD (n=5). P values obtained from one- way ANOVA using multiple comparisons (ns for p>0.05).
(§5) Figure S16. Quantification of E GFP+ macrophages in tumours from untreated and cisplatin-treated mice by time- lapse imaging on a spinning disk confocal microscope (λexc: 488 nm). Data presented as means ± SD of 8 random areas in 2- 3 mice per group (untreated or treated with 10 μg g-1 cisplatin for 72 h). […]

For a further series, the system named is MCF7 cells. Nature of the series: Cell viability (TACS MTT cell proliferation assay). The following applies: MCF7, different concentrations, 3 h, n=5. The class given is cell-based, human. The protocol:
as §4, §5
(In general: Tetrazolium assays rely on reduction of a dye to a coloured formazan, in cell work by metabolically active cells.)

The nature of series [3]: Stability analysis in mouse serum. The following applies: mouse serum vs PBS, 24 h, 37 °C, 500 rpm; 25 µM (Figure S14) or 50 µM (method); HPLC after CH3CN protein precipitation, and fluorescence (exc 520 nm). The class given is in vitro ADME. The text has this:
Optical intravital imaging is increasingly used for the preclinical evaluation of anticancer drugs in vivo. Although imaging modalities like computed tomography, positron emission tomography and magnetic resonance imaging can help to visualise whole intact organs in a non‐invasive manner,[26] they lack the spatiotemporal resolution needed to study dynamic interactions between individual tumour and stromal cells. This feature is critical to understand the mechanism of action of anticancer drugs and how they can affect interactions between cancer cells and immune cells in the tumour microenvironment.[27] Intravital imaging heavily relies on the acquisition of fluorescence signals using multiphoton microscopy, which provides cellular resolution with deep tissue penetration (≈500 μm) and minimal photodamage.[28] […] First, we analysed the chemical stability of Apotracker Red for in vivo studies by incubating the probe in mouse serum. […] When primary tumours measured around 0.5–1 cm in diameter, we administered cisplatin intraperitoneally (10 mg kg^−1). […]
fluorescence emission of Apotracker Red before and after incubation in mouse serum and […]
Fluorescence spectra were recorded after excitation at 520 nm. […]
Lipid layer assays . […] The LoD was calculated using the equation LoD = (3 × σ)/k, where σ is the standard […]

In series [4] the test system is breast cancer cells (MMTV-PyMT, MDA-MB231, MCF7). Nature of the series: Dose-dependency study with Apotracker Red and CellTrace Violet. The series is classed as cell-based, mouse and human. The settings on record: 1 to 100 µM, 48 h, Apotracker Red 150 nM; 3 independent experiments. As for the experimental part:
as §1, with “S8). […] From this screen, we decided to select 5 drugs with potent pro‐apoptotic response in breast cancer, the most diagnosed cancer worldwide.[25] […] From group 2, we selected cyclophosphamide, tamoxifen, and 5‐fluorouracil as pro‐apoptotic molecules.” for “S8).”
Figure 4 Apotracker Red detects dose‐dependent chemotherapeutic‐induced apoptosis in mouse and human breast cancer cell lines. Cells were plated with 1 μM CV, treated with increasing concentrations (0, 1, 3, 10, 30 and 100 μM) of selected drugs for 48 h, and stained with Apotracker Red (150 nM) before data acquisition. Drugs: tamoxifen (beige), cisplatin (black), 5‐fluorouracil (green), gemcitabine (pink) and cyclophosphamide (red). Data presented as mean±SEM of 3 independent experiments.
Figure S9. Flow cytometry analysis of cisplatin in different breast cancer cell lines.
Representative flow cytometric plots (from three independent experiments) of MMTV-PyMT cells (a), MDA-MB231 cells (b) and MCF7 cells (c) after treatment with increasing concentrations of cisplatin for 48 h. Cells were stained on day 0 with CellTraceTM Violet (1 µ M) and with Apotracker Red (150 nM) before data acquisition.
(1 picture or pasted object on this page, not shown here)
Edinburgh. Human peripheral blood neutrophils were isolated as previously described.[3] […]
were centrifuged (300 g, 5 min, r.t.), washed once with PBS before addition of 0.05% Trypsin, 0.02% ethylenediaminetetraacetic acid (EDTA) in Hank’s balanced salt solution (HBSS) and incubation at 37°C for 5 min. […] Histograms and mean fluorescence intensities of […]

Series [5] relates to apoptotic cells (primary human neutrophils, Jurkat T cells). The series is described as follows: Divalent cation-independent staining of apoptotic cells. The class given is cell-based. The settings on record: 2.5 mM EDTA; Apotracker Red 150 nM, Annexin V-AF647 25 nM.

Starred links: 1 amine or outer side, 2 acyl side, 3 side chain; linkers in the order of their positions; H or OH if unused. Non-standard residues stand in square brackets, D forms with d. Residues, ends and D or L forms follow the SMILES beside them. X1 = CC1=CC(C)=[N+]2C1=C(c1cccc(-c3[nH]c4ccccc4c3C[C@H](N[*:1])C(=O)[*:2])c1)c1ccc(-c3ccc(C)s3)n1[B-]2(F)F

In the case of `O=c1[nH]cc(F)c(=O)[nH]1` [5-fluorouracil], the “Apotracker Red staining in MDA-MB-231 cells, dose-dependency study” value in the series on MDA-MB-231 cells [1] is on record as “weaker Apotracker Red‐staining”. Also, the “Drug group by Apotracker Red (apoptosis) and CV (proliferation) staining” value (shortened to “Drug group by Apotracker Red”) with 8 cancer cell lines is “induced apoptosis with little reduction of cell proliferation”.

As for `CC1=CC(C)=[N+]2C1=C(c1cccc(-c3[nH]c4ccccc4c3C[C@@H]3NC(=O)[C@H](Cc4ccccc4)NC(=O)[C@H](Cc4c[nH]c5ccccc45)NC(=O)[C@H](CCCCN)NC(=O)[C@H](CCCCN)NC(=O)[C@H](CCCNC(=N)N)NC(=O)CNC3=O)c1)c1ccc(-c3ccc(C)s3)n1[B-]2(F)F` [Apotracker Red] (cyclo(F[X1]GRKKW)), the “Cell toxicity (MTT)” value in the series on MDA-MB-231 cells [2] and in the series on MCF7 cells was “did not cause cell toxicity” in each case. Also, the “Proteolytic stability in mouse serum” value in series [3] is on record as “good proteolytic stability for up to 24 h”.

In the case of `O=P1(N(CCCl)CCCl)NCCCO1` (centres unmarked) [cyclophosphamide], the “Apotracker Red staining in MDA-MB-231 cells, dose-dependency study” value in the series with MDA-MB-231 cells [1] is on record as “weaker Apotracker Red‐staining”.

`Nc1ccn([C@@H]2O[C@H](CO)[C@@H](O)C2(F)F)c(=O)n1` [gemcitabine]: the “Apotracker Red staining in MDA-MB-231 cells, dose-dependency study” value in the series with MDA-MB-231 cells [1] is listed as “weaker Apotracker Red‐staining”. Besides, the “Drug group by Apotracker Red” value in the series on 8 cancer cell lines is “induced apoptosis and decreased cell proliferation”.

With `CC/C(=C(\c1ccccc1)c1ccc(OCCN(C)C)cc1)c1ccccc1` [tamoxifen], the “Percentages of Apotracker Red staining, dose-dependency study” value in series [4] was “highest percentages of Apotracker Red staining across all breast cancer cells”. In addition, the “Drug group by Apotracker Red” value with 8 cancer cell lines is given as “induced apoptosis with little reduction of cell proliferation”.

B1: Annexin V‐AF647: a 36 kDa protein marker of PtdSer in the presence of Ca2+ ions (protein, UniProt P08758 2-320, looked up)
Annexin A5: AQVLRGTVTDFPGFDERADAETLRKAMKGLGTDEESILTLLTSRSNAQRQEISAAFKTLFGRDLLDDLKSELTGKFEKLIVALMKPSRLYDAYELKHALKGAGTNEKVLTEIIASRTPEELRAIKQVYEEEYGSSLEDDVVGDTSGYYQRMLVVLLQANRDPDAGIDEAQVEQDAQALFQAGELKWGTDEEKFITIFGTRSVSHLRKVFDKYMTISGFQIEETIDRETSGNLEQLLLAVVKSIRSIPAYLAETLYYAMKGAGTDDHTLIRVMVSRSEIDLFNIRKEFRKNFATSLYSMIKGDTSGDYKKALLLLCGEDD
modifications: Alexa Fluor 647 label
notes: a 36 kDa protein marker of PtdSer in the presence of Ca2+ ions
For the molecule B1, the “Staining of apoptotic cells after chelation of divalent cations” value in series [5] was “failed to bind”.

The values above are taken from paper PMC8991960, “A Bivalent Activatable Fluorescent Probe for Screening and Intravital Imaging of Chemotherapy‐Induced Cancer Cell Death” (Angewandte Chemie (International Ed. in English), 2021).
